How the values were obtained:
CRBN = CRBN (Homo sapiens, UniProt Q96SW2); test: Western blot dose-response degradation in HEK293 cells; format: cell-based; parameters: Western blot data for BET, CRBN and VHL protein levels; endogenous in cells; host or cells: HEK293 (ATCC); settings: for DC50: HEK293 cells, 6 h, Western blot, mean ± S.E.M. of three experiments, values marked b mean ± S.D. of two
Method: (§1) HEK293 cells were obtained from ATCC. HEK293 was cultured in DMEM supplemented with 10% (v/v) fetal bovine serum (FBS), 1% […] and 1% (v/v) penicillin/streptomycin (pen/strep) at 37 °C, 5% CO2, and 95% humidity.
(§2) HEK293 cells were plated at a density of 5 × 10^5 cells per well of a six well plate a day prior to initiation of the experiment. Compounds were dissolved to a 10 mM concentrated stock solution in DMSO from which the compounds were further diluted to a working concentration range of 1 μM to 100 pM in DMEM and was subsequently added to cells at the initiation of the experiment. An additional vehicle control was added to cells alongside compound treatments. Cells were left to incubate with compound for 6 h at 37 °C, 5% CO2, and 95% humidity. Cells were then subsequently washed twice with PBS before being harvested in RIPA buffer supplemented with protease inhibitor cocktail and Benzonase Nuclease before being store at −20 °C.
(§3) Protein concentration was determined using the BCA assay. Samples were then prepared in LDS buffer containing 5% 1 M DTT and subsequently loaded onto NuPAGE 4–12% Bis-Tris Midi gels, followed by the transfer of the proteins onto nitrocellulose membranes. The membranes were blocked for 1 h prior to incubation with the primary antibodies using 5% Milk TBST. Membranes were incubated at 4 °C in either BRD4(Ab128874), BRD3(Ab50818), BRD2(Ab139690), VHL(CST#68547) and CRBN(CST#71810) primary antibody overnight. Following overnight incubation, the membranes were incubated with complementary IRDye 800CW secondary antibody and a hFAB Rhodamine Anti-Tubulin Primary Antibody (loading control) for 1 h and then imaged with a Bio-Rad imager. All Western blots were analyzed for band intensities using Image Lab (Bio-Rad). The data extracted from these blots were then plotted and analyzed using Prism (v. 10.2.2, GraphPad). Linear regression curve fitting was used to calculate pDC50 values. The standard deviation of the pDC50 was calculated for all compounds that had two independent repeats and the standard error of the mean calculated for all compounds that had three independent repeats. All Western blotting figures were developed in Adobe illustrator.

BRD2 [1] = target: T1, BRD2 (Homo sapiens, UniProt P25440); test: Live cell kinetic HiBiT degradation assay, HiBiT-BRD2 HEK293 cells; format: cell-based; settings: for DC50: HiBiT-BRD2 CRISPR knock-in HEK293 cells, live cell kinetic degradation, 24 h, read-out: Dmax 50 BRD2; for λmax BRD2 (degradation rate): HiBiT-BRD2 knock-in HEK293 cells
T1 construct: HiBiT, is appended to the N-terminus of endogenous BRD2, BRD3, and BRD4; endogenous in cells
T1 sequence (P25440 whole entry): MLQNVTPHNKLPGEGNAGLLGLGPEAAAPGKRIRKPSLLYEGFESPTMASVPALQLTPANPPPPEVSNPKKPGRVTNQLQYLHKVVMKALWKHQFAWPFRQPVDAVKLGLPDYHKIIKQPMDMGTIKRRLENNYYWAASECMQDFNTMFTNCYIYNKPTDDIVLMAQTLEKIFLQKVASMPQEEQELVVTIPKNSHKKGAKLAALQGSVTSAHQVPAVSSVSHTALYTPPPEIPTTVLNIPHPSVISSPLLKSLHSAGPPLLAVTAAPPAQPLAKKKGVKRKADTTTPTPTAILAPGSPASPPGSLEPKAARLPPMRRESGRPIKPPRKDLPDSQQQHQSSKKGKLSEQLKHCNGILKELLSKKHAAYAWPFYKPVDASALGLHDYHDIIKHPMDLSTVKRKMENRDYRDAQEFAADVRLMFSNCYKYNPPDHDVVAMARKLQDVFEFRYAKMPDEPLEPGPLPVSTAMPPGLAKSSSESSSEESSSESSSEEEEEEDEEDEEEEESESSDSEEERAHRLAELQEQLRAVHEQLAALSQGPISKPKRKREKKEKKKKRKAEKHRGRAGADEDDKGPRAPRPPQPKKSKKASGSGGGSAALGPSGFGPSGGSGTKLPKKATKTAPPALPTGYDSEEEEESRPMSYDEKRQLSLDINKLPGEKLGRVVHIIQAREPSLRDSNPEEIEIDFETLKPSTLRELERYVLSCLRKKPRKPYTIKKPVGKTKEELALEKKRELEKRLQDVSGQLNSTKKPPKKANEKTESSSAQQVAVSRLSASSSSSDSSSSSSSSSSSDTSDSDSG
Method: HEK293 HiBiT-BRD2 (LgBiT stable), HEK293 HiBiT-BRD3 (LgBiT stable), and HEK293 HiBiT-BRD4 (LgBiT stable) were created using CRISPR/Cas9 to insert at HiBiT tag at the N-terminal genomic loci of BRD2, BRD3, or BRD4 in a cell line stably expressing LgBiT protein as described previously.[23]
For kinetic degradation experiments, HEK293 HiBiT-BRD2, 3, or 4 (LgBiT stable) cells and HEK293 HiBiT-BRD4 (LgBiT) CRBN KO and VHL KO cells were plated at 20,000 cells/well in DMEM +10% FBS in white 96-well tissue culture plates and allowed to adhere overnight. The next day, media was removed and 90 μL of prewarmed CO2-independent medium (Gibco) containing Endurazine (Promega) at a 1:100 dilution from stock was added. Plates were incubated at 37 °C for 3 h to allow luminescence to equilibrate. A threefold dilution series of each PROTAC at 10x the desired final concentration was prepared (with the amount of DMSO in each treatment condition kept constant). After luminescence equilibration, a preread luminescence measurement was taken (prior to compound addition) to allow for baseline normalization to account for possible plating differences. Cells were then treated with 10 μL of the prepared PROTAC dilution series (in triplicate or quadruplicate). Treated plates were placed in a GloMax Discover luminometer (Promega) prewarmed to 37 °C and luminescence measurements were obtained every 7 min for 24 h. Kinetic degradation plots were obtained by first normalizing time course luminescence readings in each well to the preread measurement, then to the average value of the DMSO only control at each time point. Data was analyzed using GraphPad Prism (version 8) and excel. Dmax values were identified as the lowest luminescence reading in each well. Rate constant values were calculated using a one phase exponential decay Y = (Y0-Plateau) e(K*^X) + Plateau using Prism (Y0 constrained to 1). Dmax 50 values were calculated by plotting Dmax as a function of concentration, then fitting plots using the following equation: [drawing 1] to determine IC50.

BRD4^Short = target: T2, BRD4^Short (Homo sapiens, UniProt O60885); test: Western blot dose-response degradation in HEK293 cells; format: cell-based; settings: 6 h, mean ± S.E.M. of three experiments, values marked b mean ± S.D. of two
T2 construct: Western blot data for BET, CRBN and VHL protein levels; endogenous in cells; host or cells: HEK293 (ATCC)
Method: as §1, §2, §3

BRD2 [2] = target: T1, BRD2; test: as above; format: cell-based; settings: 6 h, mean ± S.E.M. of three experiments, values marked b mean ± S.D. of two
Method: as §1, §2, §3

BRD3 = target: T3, BRD3 (Homo sapiens, UniProt Q15059); test: as above; format: cell-based; settings: 6 h, mean ± S.E.M. of three experiments, values marked b mean ± S.D. of two
T3 construct: HiBiT, is appended to the N-terminus of endogenous BRD2, BRD3, and BRD4; endogenous in cells
T3 sequence (Q15059 whole entry): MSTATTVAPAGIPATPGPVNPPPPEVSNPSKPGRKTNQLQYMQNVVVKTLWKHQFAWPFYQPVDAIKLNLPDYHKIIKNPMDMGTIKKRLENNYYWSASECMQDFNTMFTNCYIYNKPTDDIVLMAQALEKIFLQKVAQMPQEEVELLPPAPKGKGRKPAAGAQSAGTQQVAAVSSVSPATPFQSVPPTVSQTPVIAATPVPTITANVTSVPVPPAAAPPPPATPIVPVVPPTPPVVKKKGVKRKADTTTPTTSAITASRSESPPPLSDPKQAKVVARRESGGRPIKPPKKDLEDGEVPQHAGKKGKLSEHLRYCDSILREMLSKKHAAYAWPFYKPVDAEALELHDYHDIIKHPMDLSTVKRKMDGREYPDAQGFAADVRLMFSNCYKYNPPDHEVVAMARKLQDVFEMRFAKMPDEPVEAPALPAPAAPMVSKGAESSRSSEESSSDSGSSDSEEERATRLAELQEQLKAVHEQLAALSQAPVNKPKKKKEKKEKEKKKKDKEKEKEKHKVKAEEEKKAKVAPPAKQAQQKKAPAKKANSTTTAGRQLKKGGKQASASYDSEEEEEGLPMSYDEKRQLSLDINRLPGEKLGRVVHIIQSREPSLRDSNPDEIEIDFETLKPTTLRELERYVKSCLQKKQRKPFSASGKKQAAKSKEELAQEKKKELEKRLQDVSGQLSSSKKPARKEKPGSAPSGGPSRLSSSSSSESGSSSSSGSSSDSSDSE
Method: as §1, §2, §3

BRD4^Long = target: T4, BRD4^Long (Homo sapiens, UniProt O60885); test: as above; format: cell-based; settings: for DC50: HEK293 cells, 6 h, Western blot, mean ± S.E.M. of three experiments, values marked b mean ± S.D. of two
T4 construct: Western blot data for BET, CRBN and VHL protein levels; endogenous in cells; host or cells: HEK293 (ATCC)
Method: as §1, §2, §3

K562 cells = test: Cell viability assay (CellTiter-Glo); format: cell-based, human; settings: Homo sapiens; WT K562, 5.12 pM to 10 uM, n = 3 (Table S4)
KBM7 cells = test: Cell viability assay (CellTiter-Glo); format: cell-based, human; settings: Homo sapiens, KBM-7; WT KBM7, 5.12 pM to 10 uM, n = 3 (Table S4)

Chain of CRBN (Q96SW2 whole entry): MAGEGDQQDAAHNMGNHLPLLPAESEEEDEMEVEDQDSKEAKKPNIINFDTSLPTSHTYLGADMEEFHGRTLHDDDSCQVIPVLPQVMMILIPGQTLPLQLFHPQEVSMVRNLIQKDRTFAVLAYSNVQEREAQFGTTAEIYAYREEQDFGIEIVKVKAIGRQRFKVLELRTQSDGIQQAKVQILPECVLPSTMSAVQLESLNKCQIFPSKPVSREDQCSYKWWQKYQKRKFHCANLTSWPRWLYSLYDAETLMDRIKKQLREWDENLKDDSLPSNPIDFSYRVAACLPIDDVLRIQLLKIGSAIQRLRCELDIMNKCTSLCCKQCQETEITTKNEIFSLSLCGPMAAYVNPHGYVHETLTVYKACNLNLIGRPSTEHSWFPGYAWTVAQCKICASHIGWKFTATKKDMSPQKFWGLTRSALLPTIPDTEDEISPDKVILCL

SMILES | DC50 (CRBN) | DC50 (BRD2 [1]) | λmax BRD2 (degradation rate) (BRD2 [1]) | DC50 (BRD4^Short) | DC50 (BRD2 [2]) | DC50 (BRD3) | DC50 (BRD4^Long) | EC50 (K562 cells) | fold decrease in CRBN degradation vs 26 (CRBN; DC50, HEK293 Western blot) | fold decrease in BRD4^Long degradation vs 26 (BRD4^Long; DC50, HEK293 Western blot) | fold increase in CRBN degradation vs nonmethylated matched pair (CRBN; 27 vs 26, 24 vs 23, DC50, HEK293 Western blot) | EC50 (KBM7 cells)
Cc1ncsc1-c1ccc(CNC(=O)[C@@H]2C[C@@H](O)CN2C(=O)[C@@H](NC(=O)COCC(C)(COCCOCCOCCNc2cccc3c2C(=O)N(C2CCC(=O)NC2=O)C3=O)COCCOCCOC(=O)C[C@@H]2N=C(c3ccc(Cl)cc3)c3c(sc(C)c3C)-n3c(C)nnc32)C(C)(C)C)cc1 (mixture of isomers) [AB3064 (25), (14S)-8-((2-(2-(2-((2-(2,6-dioxopiperidin-3-yl)-1,3-dioxoisoindolin-4-yl)amino)ethoxy)ethoxy)ethoxy)methyl)-14-((2S,4R)-4-hydroxy-2-((4-(4-methylthiazol-5-yl)benzyl)carbamoyl)pyrrolidine-1-carbonyl)-8,15,15-trimethyl-12-oxo-3,6,10-trioxa-13-azahexadecyl 2-((S)-4-(4-chlorophenyl)-2,3,9-trimethyl-6H-thieno[3,2-f][1,2,4]triazolo[4,3-a][1,4]diazepin-6-yl)acetate] | 480 ± 370 nM | 74 nM | 1.34 h⁻¹ | 18 ± 3.3 nM | 75 ± 20 nM | 28 ± 0.8 nM | 12 ± 2.4 nM | 369 nM |  |  |  | 168 nM
Cc1ncsc1-c1ccc(CNC(=O)[C@@H]2C[C@@H](O)CN2C(=O)[C@@H](NC(=O)COCC(C)(COCCOCCNc2cc3c(cc2F)C(=O)N(C2CCC(=O)NC2=O)C3=O)COCCOCCOC(=O)C[C@@H]2N=C(c3ccc(Cl)cc3)c3c(sc(C)c3C)-n3c(C)nnc32)C(C)(C)C)cc1 (mixture of isomers) [AB3125 (30), (14S)-8-((2-(2-((2-(2,6-dioxopiperidin-3-yl)-6-fluoro-1,3-dioxoisoindolin-5-yl)amino)ethoxy)ethoxy)methyl)-14-((2S,4R)-4-hydroxy-2-((4-(4-methylthiazol-5-yl)benzyl)carbamoyl)pyrrolidine-1-carbonyl)-8,15,15-trimethyl-12-oxo-3,6,10-trioxa-13-azahexadecyl 2-((S)-4-(4-chlorophenyl)-2,3,9-trimethyl-6H-thieno[3,2-f][1,2,4]triazolo[4,3-a][1,4]diazepin-6-yl)acetate] | 900 ± 720 nM | 31 nM | 2.63 h⁻¹ | 4.4 ± 2.4 nM | 19 ± 7.2 nM | 6.4 ± 0.8 nM | 4 ± 2.1 nM | 242 nM | 4.5 fold | 5.3 fold |  | 34.1 nM
Cc1ncsc1-c1ccc(CNC(=O)[C@@H]2C[C@@H](O)CN2C(=O)[C@@H](NC(=O)COCC(C)(COCCOCCOCCNc2cc3c(cc2F)C(=O)N(C2CCC(=O)NC2=O)C3=O)COCCOCCOC(=O)C[C@@H]2N=C(c3ccc(Cl)cc3)c3c(sc(C)c3C)-n3c(C)nnc32)C(C)(C)C)cc1 (mixture of isomers) [AB3065 (28), (14S)-8-((2-(2-(2-((2-(2,6-dioxopiperidin-3-yl)-6-fluoro-1,3-dioxoisoindolin-5-yl)amino)ethoxy)ethoxy)ethoxy)methyl)-14-((2S,4R)-4-hydroxy-2-((4-(4-methylthiazol-5-yl)benzyl)carbamoyl)pyrrolidine-1-carbonyl)-8,15,15-trimethyl-12-oxo-3,6,10-trioxa-13-azahexadecyl 2-((S)-4-(4-chlorophenyl)-2,3,9-trimethyl-6H-thieno[3,2-f][1,2,4]triazolo[4,3-a][1,4]diazepin-6-yl)acetate] | 310 ± 200 nM | 23 nM | 1.46 h⁻¹ | 12 ± 5.8 nM | 21 ± 5.4 nM | 14 ± 7.5 nM | 10 ± 4.4 nM | 110 nM |  |  |  | 39.4 nM

Compounds with a lower DC50 (CRBN), results first:

DC50 (CRBN) | DC50 (BRD2 [1]) | λmax BRD2 (degradation rate) (BRD2 [1]) | DC50 (BRD4^Short) | DC50 (BRD2 [2]) | DC50 (BRD3) | DC50 (BRD4^Long) | EC50 (K562 cells) | fold decrease in CRBN degradation vs 26 (CRBN; DC50, HEK293 Western blot) | fold decrease in BRD4^Long degradation vs 26 (BRD4^Long; DC50, HEK293 Western blot) | fold increase in CRBN degradation vs nonmethylated matched pair (CRBN; 27 vs 26, 24 vs 23, DC50, HEK293 Western blot) | SMILES | EC50 (KBM7 cells)
200 ± 110 nM |  | 1.12 h⁻¹ | 11 ± 3.7 nM | 58 ± 16 nM | 11 ± 4.6 nM | 2.5 ± 0.5 nM | 212 nM |  |  |  | Cc1ncsc1-c1ccc(CNC(=O)[C@@H]2C[C@@H](O)CN2C(=O)[C@@H](NC(=O)COCC(C)(COCCOCCOCCNc2cccc3c2C(=O)N(C2CCC(=O)NC2=O)C3=O)COCCOCCOCCOC(=O)C[C@@H]2N=C(c3ccc(Cl)cc3)c3c(sc(C)c3C)-n3c(C)nnc32)C(C)(C)C)cc1 (mixture of isomers) [AB3062 (23), (17S)-11-((2-(2-(2-((2-(2,6-dioxopiperidin-3-yl)-1,3-dioxoisoindolin-4-yl)amino)ethoxy)ethoxy)ethoxy)methyl)-17-((2S,4R)-4-hydroxy-2-((4-(4-methylthiazol-5-yl)benzyl)carbamoyl)pyrrolidine-1-carbonyl)-11,18,18-trimethyl-15-oxo-3,6,9,13-tetraoxa-16-azanonadecyl 2-((S)-4-(4-chlorophenyl)-2,3,9-trimethyl-6H-thieno[3,2-f][1,2,4]triazolo[4,3-a][1,4]diazepin-6-yl)acetate] | 104 nM
75 ± 14 nM | 2 nM | 2.37 h⁻¹ | 2.1 ± 0.3 nM | 15 ± 2.1 nM | 1.6 ± 0.3 nM | 2.3 ± 0.4 nM | 62.1 nM |  |  | ~2.6 fold | Cc1ncsc1-c1ccc([C@H](C)NC(=O)[C@@H]2C[C@@H](O)CN2C(=O)[C@@H](NC(=O)COCC(C)(COCCOCCOCCNc2cc3c(cc2F)C(=O)N(C2CCC(=O)NC2=O)C3=O)COCCOCCOCCOC(=O)C[C@@H]2N=C(c3ccc(Cl)cc3)c3c(sc(C)c3C)-n3c(C)nnc32)C(C)(C)C)cc1 (mixture of isomers) [AB3067 (27), (17S)-11-((2-(2-(2-((2-(2,6-dioxopiperidin-3-yl)-6-fluoro-1,3-dioxoisoindolin-5-yl)amino)ethoxy)ethoxy)ethoxy)methyl)-17-((2S,4R)-4-hydroxy-2-(((S)-1-(4-(4-methylthiazol-5-yl)phenyl)ethyl)carbamoyl)pyrrolidine-1-carbonyl)-11,18,18-trimethyl-15-oxo-3,6,9,13-tetraoxa-16-azanonadecyl 2-((S)-4-(4-chlorophenyl)-2,3,9-trimethyl-6H-thieno[3,2-f][1,2,4]triazolo[4,3-a][1,4]diazepin-6-yl)acetate] | 6.9 nM

From article PMC11638965, “Leveraging Dual-Ligase Recruitment to Enhance Protein Degradation via a Heterotrivalent Proteolysis Targeting Chimera” (Journal of the American Chemical Society, 2024)
